# Test results published in patent US6358993B1, “Pharmaceutically active nitrogen ring compounds and methods of use thereof” (CeNes Pharmaceuticals, Inc., priority 1996, dated 2002).
# Structures can show the parent of a compound that is named as a salt.
# Columns and labels:
# DBA/2 mice = experiment: In vivo anticonvulsant activity in the DBA/2 mouse model (mouse audiogenic assay); conditions: 30 minutes before auditory stimulus, inhibition relative to vehicle
# Method: As discussed above, preferred compounds of the invention in a standard anticonvulsant in vivo audiogenic test, such as the audiogenic mouse assay of Example 48 which follows, where DBA/2 mice about 20-23 days old are injected intraperitoneally with a test compound 30 minutes prior to being placed in a bell jar with exposure to auditory stimulus of 12 KHz sine wave at 110-120 db. References herein in vivo “audiogenic assay” are intended to refer to that protocol. […] As discussed above, activity in the audiogenic assay has been recognized as indicative that a test compound has neuroprotective properties. See, e.g., M. Tricklebank et al., European Journal of Pharmacology, supra; T. Seyfried, Federation Proceedings, supra.
# In vivo Anticonvulsant Activity in the DBA/2 Mouse Model (Mouse Audiogenic Assay)
# Compounds were tested for their effectiveness in preventing seizures in DBA/2 mice which have a unique sensitivity to auditory stimulation. Exposure to loud high-frequency sounds can trigger seizure activity in these animals. This sensitivity develops from postnatal day 12 and peaks around day 21 and slowly diminishes as the animals mature. The unusual response to auditory stimulation in this strain of mouse is believed to be due to a combination of early myelination (causing an unusually low excitatory threshold) and delayed development of inhibitory mechanisms.
# Mice were injected intraperitoneally with the compound specified in Table I below or with vehicle control, 30 minutes prior to being placed in a bell jar and turning on the auditory stimulus (12 KHz sine wave at 110-120 db). Administered doses are specified in Table I as milligram of compound per kilogram bodyweight of mouse. The auditory stimulus was left on for 60 seconds and mice reactions were timed and recorded. “FB” refers to free base.
# mouse audiogenic tests = conditions: in vivo; cited from earlier work
# [1] = in vivo; cited from earlier work
# in vivo models of stroke = conditions: cited from earlier work
Compound,Audiogenic Response % Inhib. (DBA/2 mice; dose 10 mg/kg i.p.) [%],Audiogenic Response % Inhib. (DBA/2 mice; dose 20 mg/kg i.p.) [%],also measured
"N=C(Nc1cc(Br)ccc1Br)N1CCCc2ccc(C(F)(F)F)cc21 (as salt: hydrochloride) [Example 35, N-(2,5-dibromophenyl)-(7-trifluoromethyl-1,2,3,4-tetrahydroquinolinyl)carboximidamide Hydrochloride]",,,melting point: 201 to 202 °C
"N=C(N)N1Cc2ccccc2CCc2ccccc21 (as salt: hydrochloride) [Example 41, 5,6,11,12-tetrahydrodibenz[b,f]azocin-carboximidanmide.hydrochloride]",,,melting point: 238 to 240 °C
"N=C(Nc1cccc2ccccc12)N1CCc2ccccc21 [Example 2, N-(1-Naphthyl)-1-indolinylcarboximidamide]",100,,Audiogenic Response % Inhib. (DBA/2 mice; dose 2 mg/kg i.p.): 82%
"CS(=O)(=O)O.N=C(Nc1ccc(OCc2ccccc2)cc1)N1CCc2ccccc21 [Example 4, N-(4-Benzyloxyphenyl)-1-indolinylcarboximidamide.mesylate]",,32,
"COc1ccc(NC(=N)N2CCc3ccccc32)c2ccccc12.CS(=O)(=O)O [Example 5, N-(4-Methoxynaphthyl)-1-indolinylcarboxidamide.mesylate]",68,87,Audiogenic Response % Inhib. (DBA/2 mice; dose 5 mg/kg i.p.): 50%
"N=C(Nc1ccc(Cl)c(Cl)c1)N1CCc2ccccc21 [Example 6, N-(3,4-Dichlorophenyl)-1-indolinylcarboximidamide]",41,83,
"CCc1cccc2c1N(C(=N)Nc1cccc3ccccc13)CC2 [Example 9, N-(1-Naphthyl)-1-(7-ethyl)-indolinylcarboximidaide]",,28,
"Cl.N=C(Nc1cccc(Cl)c1Cl)N1CCc2ccccc21 [Example 11, N-(2,3-dichiorophenyl)-1-indolinylcarboximidamide.HCl]",55,,
"Cc1cccc(NC(=N)N2CCc3ccccc32)c1C.Cl [Example 12, N-(2,3-dimethylphenyl)-1-indolinylcarboximidamide.HCl]",88,,Audiogenic Response % Inhib. (DBA/2 mice; dose 2 mg/kg i.p.): 23%; Audiogenic Response % Inhib. (DBA/2 mice; dose 5 mg/kg i.p.): 67%
"Cl.N=C(Nc1cccc2c1CCCC2)N1CCc2ccccc21 [Example 13, N-(5,6,7,8-tetrahydro-1-naphthyl)-1-indolinylcarboximidamide.HCl]",48,80,
"CCc1ccc(Cl)c(NC(=N)N2CCCc3ccc(C(F)(F)F)cc32)c1.Cl [Example 19, N-(2-chloro-5-ethylphenyl)-[(7-trifluoromethyl)-1,2,3,4-tetrahydroquinolinyl]carboximidamiide.HCl]",44,91,
Cl.N=C(Nc1cccc2ccccc12)N1CCCc2ccc(C(F)(F)F)cc21 [Example 20],,,Audiogenic Response % Inhib. (DBA/2 mice; dose 4 mg/kg i.p.): 13%
"Cl.N=C(Nc1cccc2ccccc12)N1CCCc2ccccc21 [Example 21, N-(1-naphthyl)-(1,2,3,4-tetrahydroquinolinyl)carboximidamide.HCl]",,,Audiogenic Response % Inhib. (DBA/2 mice; dose 1 mg/kg i.p.): 13%; Audiogenic Response % Inhib. (DBA/2 mice; dose 2 mg/kg i.p.): 62%; Audiogenic Response % Inhib. (DBA/2 mice; dose 4 mg/kg i.p.): 88%
"Cl.N=C(Nc1cccc(-c2ccccc2)c1)N1Cc2cccc3cccc1c23 [Example 22, N-(3-biphenyl)-1-(benz[cd]indolinyl)carboximdamide.HCl]",23,,
"Cc1ccccc1NC(=N)N1Cc2cccc3cccc1c23.Cl [Example 23, N-(2-tolyl)-1-(benz[cd]indolinyl)carboximidamnide.HCl]",,,Audiogenic Response % Inhib. (DBA/2 mice; dose 1 mg/kg i.p.): 53%; Audiogenic Response % Inhib. (DBA/2 mice; dose 2 mg/kg i.p.): 61%; Audiogenic Response % Inhib. (DBA/2 mice; dose 4 mg/kg i.p.): 95%
"Cc1ccc(C)c(NC(=N)N2Cc3cccc4cccc2c34)c1.Cl [Example 25, N-(2,5-dimethylphenyl)-1-benz[cd]indolinylcarboximidamide.HCl]",76,,Audiogenic Response % Inhib. (DBA/2 mice; dose 5 mg/kg i.p.): 59%
"Cc1ccc2c(c1)CCCN2C(=N)Nc1cccc2ccccc12.Cl [Example 33, N-(1-naphthyl)-(6-methyl-1,2,3,4-tetrahydroquinolinyl)carboximidamide Hydrochloride]",,,Audiogenic Response % Inhib. (DBA/2 mice; dose 4 mg/kg i.p.): 62%
C[C@]12N[C@H](Cc3ccccc31)c1ccccc12 [MK-801],,,activity in mouse audiogenic tests (mouse audiogenic tests): good activity; toxicity [1]: has shown toxicity; results in in vivo models of stroke (in vivo models of stroke): good results
"N=C(Nc1cccc2ccccc12)N1CCc2ccccc2C1 [N-(1-naphthyl)-1,2,3,4-tetrahydroisoquinolinyl)carboximidamide]",,41,
N-(2-biphenyl)-1-indolinylcarboximidamide.HCl [Example 14],,56,
N-(5-Acenaphthyl)-1-(5-bromo)-indolinylcarboximidamide [Example 8],,11,
N-(5-Acenaphthyl)-1-(5-methoxy)-1-indolinylcarboximidamide.HCl [Example 7],21,,
